From patent US8674059B2, “Colon cancer related gene TOM34” (Oncotherapy Science, Inc., priority 2005, dated 2014)
Where no end group is shown, it is not given here.

Experiments:
Format in all cases: cell-based, human
HT29 cells = assay: Cold target inhibition assay; details: E/T ratio 20; TISI with or without loaded peptide
Experimental: FIG. 9 depict HLA specificity of the CTL clones raised by TOM34-299. The CTL clone raised by TOM34-299 specifically recognizes TOM34 in the HLA-A24 restricted manner. • The cold target inhibition assay was performed as described in “Materials and Methods”. HT29 cells labeled by Na2^51CrO4 were prepared as hot target, while TISI cells with or without loaded TOM34-299 peptide were used without ^51Cr labeling as cold targets. E/T ratio was fixed at 20.
(§1) Target cells were labeled with 100 μCi of Na2^51CrO4 (Perkin Elmer Life Sciences) for 1 hr at 37° C. in a CO2 incubator. Peptide-loaded target cells were prepared by incubating the cells with 20 μg/ml of the peptide for 16 hrs at 37° C. before labeling. Labeled target cells were rinsed and mixed with effector cells in a final volume of 0.2 ml in round-bottom microtiter plates. The plates were centrifuged (4 minutes at 800×g) to increase cell-to-cell contact and placed in a CO2 incubator at 37° C. After 4 hrs of incubation, 0.1 ml of the supernatant was collected from each well and the radioactivity was determined with a gamma counter. In case of evaluating cytotoxicity for target cells that endogenously express TOM34, the cytolytic activity was tested in the presence of 30-fold excess of unlabeled K562 cells to eliminate any non-specific lysis due to NK-like effectors. […]

TISI cells (HLA-A24/24) = assay: In vitro CTL induction and 51Cr-release cytotoxicity assay against peptide-loaded TISI cells
Text: Monocyte-derived dendritic cells (DCs) were used as antigen-presenting cells (APCs) to induce CTLs against peptides presented on HLA. DCs were generated in vitro as described elsewhere (Nukaya I, et al., Int J Cancer. 1999; 80(1):92-7; Tsai V, et al., J Immunol. 1997; 158(4):1796-802). Briefly, peripheral blood mononuclear cells (PBMCs) were isolated from normal volunteers ((HLA-A24) by Ficoll-Paque (Pharmacia) solution and separated by adherence to a plastic tissue culture flask (Becton Dickinson) so as to enrich them for the monocyte fraction. The monocyte-enriched population was cultured in the presence of 1,000 U/ml of GM-CSF (provided by Kirin Brewery Company) and 1,000 U/ml of IL-4 (Genzyme) in AIM-V (Invitrogen) containing 2% heat-inactivated autologous serum (AS). After 7 days in the culture, the cytokine-generated DCs were loaded with 20 μg/ml of HLA-A24-binding peptides in the presence of 3 μg/ml of β2-microglobulin for 4 hrs at 20° C. in AIM-V. These peptide-loaded DCs were then irradiated (5,500 rad) and mixed at a 1:20 ratio with autologous CD8+ T cells, obtained by positive selection with Dynabeads M-450 CD8 (Dynal) and Detachabead (Dynal). This mixture was subdivided and aliquots were incubated in 48-well plates (Corning); each well contained 1.5×10^4 peptide-loaded DCs and 3×10^5 CD8+ T cells in 0.5 ml of AIM-V/2% AS containing 10 ng/ml of IL-7 (Genzyme). Three days later, these cultures were supplemented with IL-2 (CHIRON) to a final concentration of 20 IU/ml. On day 7 and 14, the T cells were further restimulated with the autologous peptide-loaded DCs. The DCs were prepared each time by the same way as described above. Cytotoxicity was tested against peptide-loaded TISI cells after the 3rd round of peptide stimulation on day 21. […]
Target cells were labeled with 100 μCi of Na2^51CrO4 (Perkin Elmer Life Sciences) for 1 hr at 37° C. in a CO2 incubator. […] After 4 hrs of incubation, 0.1 ml of the supernatant was collected from each well and the radioactivity was determined with a gamma counter. […]

SNU-C2A = assay: 51Cr-release cytotoxicity of CTL clones against SNU-C2A cells (TOM34 positive, HLA-A24 negative); details: expresses TOM34 but not HLA-A24
Experimental: as §1
(§2) The percentage of specific cytotoxicity was determined by calculating the percentage of specific ^51Cr-release by the following formula: {(cpm of the test sample release−cpm of the spontaneous release)/(cpm of the maximum release−cpm of the spontaneous release)}×100. Spontaneous release was determined by incubating the target cells alone, in the absence of effector cells, and the maximum release was obtained by incubating the targets with 1N HCl. […]

HT29 = assay: 51Cr-release cytotoxicity of CTL clones against HT29 cells endogenously expressing TOM34; details: HT29, expresses TOM34 and HLA-A24
Experimental: as §1, §2

DLD-1 = assay: 51Cr-release cytotoxicity of CTL clones against DLD-1 cells endogenously expressing TOM34; details: DLD-1, expresses TOM34 and HLA-A24
Experimental: as §1, §2

KLRQEVKQNL [KLRQEVKQNL]
cytotoxic activity of CTL clone against HT29 in presence of cold target TISI cells (HT29 cells): inhibited by the addition of TISI cells only when loaded with the peptide | cytotoxic activity of CTL lines against the peptide-loaded target (TISI cells (HLA-A24/24); CTL lines stimulated by the peptide, TISI loaded with peptide): potent cytotoxic activity | cytotoxic activity of CTL lines against targets not loaded with the peptide (TISI cells (HLA-A24/24); TISI without loaded peptide): without showing any significant cytotoxic activity | E/T ratio at which antigen-specific cytotoxicity of CTL lines is detectable (TISI cells (HLA-A24/24); as low as): 1.2 | cytotoxic activity of two CTL clones (SNU-C2A): neither of the two CTL clones showed any relevant cytotoxic activity | cytotoxic activity of two CTL clones (HT29): potent cytotoxic activity | cytotoxic activity of two CTL clones (DLD-1): potent cytotoxic activity
